Data from patent US4994258A, “Gamma emitting, CCK-A antagonists for pancreatic imaging” (Merck & Co., Inc., priority 1990, dated 1991).

Assays:
[1] = In vivo distribution of tritiated radioligand in pancreas; settings: in vivo, iv
Procedure: (§1) Animals were euthanized at various times (15 min to 2 hr), and organs of interest removed for assay. Biopsy samples were counted in an autogamma counter (50% counting efficiency) for ^123 I labeled radioligand. For the tritiated radioligand, in rats and rabbits, 10 to 50 mg samples of pancreas and, in rats, several regions of CNS (cortex, interpeduncular nucleus, and substantial nigra) were solubilized in protosol® (New England Nuclear). Liquid scintillation cocktail was added and the samples were dark adapted for 16 hours, then counted in a liquid scintillation counter with automatic quench correction. Results were the average of at least five animals and were expressed as % dose/g (wet weight).

CCK-A receptors [2] = experiment: as above; settings: pancreas, tritiated radioligand
Procedure: as §1

CCK-A receptors [3] = experiment: In vivo distribution after coinjection of unlabeled carboxamide (receptor-mediated binding); design: species or system rats
Procedure: (§2) Animals were euthanized at various times (15 min to 2 hr), and organs of interest removed for assay. […] […] Liquid scintillation cocktail was added and the samples were dark adapted for 16 hours, then counted in a liquid scintillation counter with automatic quench correction. Results were the average of at least five animals and were expressed as % dose/g (wet weight).

CCK-A receptors [4] = settings: mice, ^3 H and ^11 C labeled, high specific activity, 4 hours post intravenous injection; cited from earlier work
CCK-A receptors [5] = system: CCK-A receptors; design: species or system rats; settings: rat, in vivo, iv
Procedure: Rats under ketamine/acepromazine anesthesia were positioned for either anterior or posterior dynamic (128×128×16) images. A large-field-of-view gamma camera with a low energy, all purpose collimator, peaked for ^123 I, was utilized. Thirty one-minute images were acquired immediately post intravenous administration of 0.2 mCi of [^123 I]3(S)-1,3-dihydro-3-(4-iodobenzoylamino)-1-methyl -5-phenyl-2H-1,4-benzodiazepin-2-one. To enable visualization of the liver alone, an unblocked rat was injected with 0.125 mCi of ^99m Tc-albumin colloid. A static one-minute image (128×128×16) was obtained then, without moving the animal, the dose of [^123 I]3(S)-1,3-dihydro-3-(4-iodobenzoylamino) -1-methyl-5-phenyl-2H-1,4-benzodiazepin-2-one was injected and imaging proceeded as described. Rabbits and African green monkeys under ketamine/ xylazine anesthesia were positioned for an anterior view and imaged as the rats were after an intravenous injection of 0.5 mCi of [^123 I] (S)-1,3-dihydro-3-(4-iodobenzoylamino) -1-methyl-5-phenyl-2H-1,4-benzodiazepin-2-one for rabbits, and 1.3 mCi for monkeys.
All blocked studies utilized a coinjection of 1 mg/kg of (R)-N-(2,3-dihydro-1-methyl-2-oxo-5-phenyl-1H-1, 4-benzodiazepin-3-yl)-1H-indole-2-carboxamide. […] Reduced data were expressed as count rates in regions of interest (ROI) as a function of time.

[6] = In vivo distribution necropsy after i.v. injection; design: species or system rats
Procedure: as §1

[7] = molecular target: T1, CCK-A receptor from rat pancreas (Rattus norvegicus, UniProt P30551); experiment: In vitro binding assay, saturation studies with radioligand, rat pancreas
T1 construct: Pancreatae were removed from either rats or rabbits immediately after euthanasia; from tissue; host or cells: rat pancreas homogenate
T1 sequence (P30551 1-444): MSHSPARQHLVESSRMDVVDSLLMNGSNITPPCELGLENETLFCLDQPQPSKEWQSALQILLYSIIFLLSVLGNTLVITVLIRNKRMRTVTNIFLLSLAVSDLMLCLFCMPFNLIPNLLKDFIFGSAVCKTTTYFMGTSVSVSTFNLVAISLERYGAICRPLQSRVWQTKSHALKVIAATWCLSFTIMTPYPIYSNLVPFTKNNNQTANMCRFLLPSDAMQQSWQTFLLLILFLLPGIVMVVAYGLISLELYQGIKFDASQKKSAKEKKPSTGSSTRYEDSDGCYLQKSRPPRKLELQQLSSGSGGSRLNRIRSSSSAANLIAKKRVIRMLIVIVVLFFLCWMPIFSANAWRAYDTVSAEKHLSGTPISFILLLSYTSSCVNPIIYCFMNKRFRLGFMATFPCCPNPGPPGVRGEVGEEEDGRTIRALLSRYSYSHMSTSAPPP
Procedure: Pancreatae were removed from either rats or rabbits immediately after euthanasia and placed in ice-cold buffer (50 mM Tris·HCl (pH 7.4), 5 mM MgCl2, 5 mM DTT, 2 mg/ml BSA and 0.14 mg/ml bacitracin). The tissue (0.5 g pancreas) was homogenized in 200 ml of the ice-cold Tris buffer. Aliquots (0.1 ml) were added to various concentrations of radioligand (5 ml) in Tris buffer, incubated for 60 min at ambient temperatures, and filtered over GC-filters. After washing with ice cold Tris buffer (2×5 ml), the filters were air dried and counted in 10 ml of liquid scintillation cocktail (PCS, Amersham) in a Beckman LSC-5000. Data were converted to Molar concentrations and analyzed via SCAFIT, and data are presented by the method of Scatchard. The specific activity of the radioiodinated product was determined as that which provided the same concentration of receptor as obtained with the tritiated ligand.

[8] = In vivo distribution after coinjection of unlabeled carboxamide (receptor-mediated binding); design: species or system rats; settings: rat, iv
Procedure: as §2

[9] = mice; cited from earlier work
[10] = cited from earlier work

## CN1C(=O)C(NC(=O)c2cc3ccccc3[nH]2)N=C(c2ccccc2)c2ccccc21 (stereo in doubt) [[^3 H](R)-N-(2,3-dihydro-1-methyl-2-oxo-5-phenyl-1H-1,4-benzodiazepin-3-yl)-1H-indole-2-carboxamide]
[1]; 1 mg/kg
  tissue uptake: 0.25 %ID/g
[1]; 10 uCi
  tissue uptake: 2.1 %ID/g
CCK-A receptors [2]
  receptor-mediated part of localization in the pancreas: 90%

## CN1C(=O)[C@H](NC(=O)c2cc3ccccc3[nH]2)N=C(c2ccccc2)c2ccccc21 [(R)-N-(2,3-dihydro-1-methyl-2-oxo-5-phenyl-1H-1,4-benzodiazepin-3-yl) -1H-indole-2-carboxamide, reference compound]
CCK-A receptors [3]; coinjection 0.4 mg/kg, rat pancreas (Table 3)
  reduction of localization (of the [^123 I] radioligand in rat pancreas) by coinjection: 60-70%

## CN1C(=O)[C@@H](NC(=O)c2cc3ccccc3[nH]2)N=C(c2ccccc2)c2ccccc21 [N-(2,3 Dihydro-1-methyl-2-oxo-5-phenyl-1H-1,4-benzodiazepine-3-yl) -1H-indole-2-carboxamide]
CCK-A receptors [4]
  localization in the pancreas: 76 % dose/gram

## CN1C(=O)[C@@H](NC(=O)c2ccc([123I])cc2)N=C(c2ccccc2)c2ccccc21 [[^123 I]3(S)-1,3-Dihydro-3-(4-iodobenzoylamino)-1-methyl-5-phenyl-2 H-1,4-benzodiazepin-2-one]
CCK-A receptors [5]
  localization in the pancreas (imaging and biopsied samples): did localize in the pancreas by a receptor-mediated mechanism
[6]; rat, blood, iv, 10 uCi, blood, 30 min post-i.v. injection of 10 μCi, 95% confidence intervals (Table 4), read-out: % DOSE/GRAM, Blood
  tissue uptake at 0.5 h: 0.307 ± 0.051 %ID/g
[6]; rat, descending colon, iv, 10 uCi, descending colon, 30 min post-i.v. injection of 10 μCi, 95% confidence intervals (Table 4), read-out: % DOSE/GRAM, Descending Colon
  tissue uptake at 0.5 h: 0.418 ± 0.073 %ID/g
[6]; rat, liver, iv, 10 uCi, liver, 30 min post-i.v. injection of 10 μCi, 95% confidence intervals (Table 4), read-out: % DOSE/GRAM, Liver
  tissue uptake at 0.5 h: 1.96 ± 0.56 %ID/g
[6]; rat, muscle, iv, 10 uCi, muscle, 30 min post-i.v. injection of 10 μCi, 95% confidence intervals (Table 4), read-out: % DOSE/GRAM, Muscle
  tissue uptake at 0.5 h: 0.319 ± 0.086 %ID/g
[6]; rat, pancreas, iv, 10 uCi, pancreas, 15 min, i.v. injection, error range 95% confidence intervals (Table 2), read-out: % DOSE/GRAM in rat pancreas
  tissue uptake at 0.25 h: 2.07 ± 0.46 %ID/g
[6]; rat, pancreas, iv, 10 uCi, pancreas, 30 min, i.v. injection, error range 95% confidence intervals (Table 2), read-out: % DOSE/GRAM in rat pancreas
  tissue uptake at 0.5 h: 1.9 ± 0.71 %ID/g
[6]; rat, pancreas, iv, 10 uCi, pancreas, 30 min post-i.v. injection of 10 μCi, 95% confidence intervals (Table 4), read-out: % DOSE/GRAM, Pancreas
  tissue uptake at 0.5 h: 2.54 ± 0.93 %ID/g
[6]; rat, pancreas, iv, 10 uCi, pancreas, 60 min, i.v. injection, error range 95% confidence intervals (Table 2), read-out: % DOSE/GRAM in rat pancreas
  tissue uptake at 1 h: 1.14 ± 0.13 %ID/g
[6]; rat, pyloric sphincter, iv, 10 uCi, P. Sphincter (pyloric), 30 min post-i.v. injection of 10 μCi, 95% confidence intervals (Table 4), read-out: % DOSE/GRAM, P. Sphincter
  tissue uptake at 0.5 h: 1.25 ± 0.33 %ID/g
[6]; rat, sigmoidal colon, iv, 10 uCi, sigmoidal colon, 30 min post-i.v. injection of 10 μCi, 95% confidence intervals (Table 4), read-out: % DOSE/GRAM, Sigmoidal Colon
  tissue uptake at 0.5 h: 0.5 ± 0.13 %ID/g
[6]; rat, transverse colon, iv, 10 uCi, transverse colon, 30 min post-i.v. injection of 10 μCi, 95% confidence intervals (Table 4), read-out: % DOSE/GRAM, Transverse Colon
  tissue uptake at 0.5 h: 0.5 ± 0.18 %ID/g
[6]; rats
  ratio of activity in the pancreas to that in the blood and liver: suggests sufficient localization to provide in vivo images of the pancreas
[7]
  affinity for the CCK-A receptor relative to [^3 H](R)-N-(2,3 dihydro-1-methyl-2-oxo-5-phenyl-1H-1,4-benzodiazepin-3-yl)-1H-indole-2-carboxamide (fold lower): 3 -fold lower
[8]; blood, 0.4 mg/kg, blood, 30 min post-i.v. coinjection of 10 μCi with 0.4 mg/kg (R)-indole-2-carboxamide, 95% confidence intervals (Table 5), read-out: % DOSE/GRAM, Blood, coinjection
  tissue uptake at 0.5 h: 0.236 ± 0.03 %ID/g
[8]; P. Sphincter (pyloric), 30 min post-i.v. coinjection of 10 μCi with 0.4 mg/kg (R)-indole-2-carboxamide, 95% confidence intervals (Table 5), read-out: % DOSE/GRAM, P. Sphincter, coinjection
  tissue uptake at 0.5 h: 0.705 ± 0.19 %ID/g
[8]; descending colon, 30 min post-i.v. coinjection of 10 μCi with 0.4 mg/kg (R)-indole-2-carboxamide, 95% confidence intervals (Table 5), read-out: % DOSE/GRAM, Descending Colon, coinjection
  tissue uptake at 0.5 h: 0.434 ± 0.12 %ID/g
[8]; sigmoidal colon, 30 min post-i.v. coinjection of 10 μCi with 0.4 mg/kg (R)-indole-2-carboxamide, 95% confidence intervals (Table 5), read-out: % DOSE/GRAM, Sigmoidal Colon, coinjection
  tissue uptake at 0.5 h: 0.6 ± 0.47 %ID/g
[8]; transverse colon, 30 min post-i.v. coinjection of 10 μCi with 0.4 mg/kg (R)-indole-2-carboxamide, 95% confidence intervals (Table 5), read-out: % DOSE/GRAM, Transverse Colon, coinjection
  tissue uptake at 0.5 h: 0.384 ± 0.06 %ID/g
[8]; liver, 0.4 mg/kg, liver, 30 min post-i.v. coinjection of 10 μCi with 0.4 mg/kg (R)-indole-2-carboxamide, 95% confidence intervals (Table 5), read-out: % DOSE/GRAM, Liver, coinjection
  tissue uptake at 0.5 h: 1.69 ± 0.39 %ID/g
[8]; muscle, 0.4 mg/kg, muscle, 30 min post-i.v. coinjection of 10 μCi with 0.4 mg/kg (R)-indole-2-carboxamide, 95% confidence intervals (Table 5), read-out: % DOSE/GRAM, Muscle, coinjection
  tissue uptake at 0.5 h: 0.271 ± 0.04 %ID/g
[8]; pancreas, 0.4 mg/kg, pancreas, 15 min, i.v. coinjection with 0.4 mg/kg (R)-indole-2-carboxamide, 95% confidence intervals (Table 3), read-out: % DOSE/GRAM in rat pancreas, coinjection
  tissue uptake at 0.25 h: 0.574 ± 0.065 %ID/g
[8]; pancreas, 0.4 mg/kg, pancreas, 30 min, i.v. coinjection with 0.4 mg/kg (R)-indole-2-carboxamide, 95% confidence intervals (Table 3), read-out: % DOSE/GRAM in rat pancreas, coinjection
  tissue uptake at 0.5 h: 0.727 ± 0.18 %ID/g
[8]; pancreas, 0.4 mg/kg, pancreas, 30 min post-i.v. coinjection of 10 μCi with 0.4 mg/kg (R)-indole-2-carboxamide, 95% confidence intervals (Table 5), read-out: % DOSE/GRAM, Pancreas, coinjection
  tissue uptake at 0.5 h: 0.9 ± 0.22 %ID/g
[8]; pancreas, 0.4 mg/kg, pancreas, 60 min, i.v. coinjection with 0.4 mg/kg (R)-indole-2-carboxamide, 95% confidence intervals (Table 3), read-out: % DOSE/GRAM in rat pancreas, coinjection
  tissue uptake at 1 h: 0.472 ± 0.085 %ID/g
CCK-A receptors [3]; rats
  specific localization in the region of the pyloric sphincter: specific localization is obtained in the region of the pyloric sphincter
CCK-A receptors [3]; rats, duodenum and colon
  blockade of localization in the duodenum and colon: significant blockade of localization was not demonstrated

## Cc1cc([131I])cc(CN(C)CCCN(C)C)c1O [[^131 I]HIPDM, [^131 I]N, N, N'-trimethyl-N'-(2-hydroxy-3-methyl-5-iodobenzyl)-1,3-propanediamine]
[9]
  localization in the pancreas: localizes in the pancreas

## C[75Se]CC[C@H](N)C(=O)O [^75 Se-selenomethionine]
[10]; in vivo
  biological clearance: slow biological clearance
  tracer localizing in the pancreas: 5-7%
[10]; primarily the liver
  uptake in adjacent organs: high uptake in adjacent organs, primarily the liver
